By IC50 is commonly meant the concentration that gives 50% inhibition.

Structures are written as SMILES.

In one test the target is hQC (Homo sapiens, UniProt Q16769). As to the kind of experiment: Fluorometric assay of glutaminyl cyclase (QC) inhibition, H-Gln-βNA or H-Gln-AMC substrate. Format: biochemical. The following applies: compound from preparative synthesis, purified by chromatography; fluorescent assay; read-out: IC50 hQC. A digest of the protocol: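 Ki values were obtained by fitting progress curves to a competitive-inhibition equation, and the rapid screen used 4 mM inhibitor with substrate at 1 KM. Both readouts coupled pyroglutamyl aminopeptidase at pH 8.0 and 30° C: H-Gln-βNA at 0.2 mM (ex/em 320/410 nm) or H-Gln-AMC (380/460 nm).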
Sequence of hQC (Q16769 29-361): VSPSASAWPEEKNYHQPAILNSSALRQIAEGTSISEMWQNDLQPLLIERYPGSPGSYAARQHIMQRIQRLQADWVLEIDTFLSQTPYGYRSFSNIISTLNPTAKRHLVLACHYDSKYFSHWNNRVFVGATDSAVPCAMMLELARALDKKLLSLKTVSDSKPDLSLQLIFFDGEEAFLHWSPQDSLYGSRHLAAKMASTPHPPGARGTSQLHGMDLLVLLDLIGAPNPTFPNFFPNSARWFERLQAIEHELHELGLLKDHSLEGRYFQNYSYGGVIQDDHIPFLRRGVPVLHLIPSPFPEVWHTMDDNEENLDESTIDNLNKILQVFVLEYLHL
Consider `O=C1N/C(=N\C2CCCCC2)C(c2c(F)ccc(Cl)c2F)N1c1ccc2[nH]cnc2c1` (stereo not shown) [Compound 220, 1-(1H-Benzoimidazol-5-yl)-5-(3-chloro-2,6-difluoro-phenyl)-4-(cyclohexylimino)-imidazolidin-2-one], for which the IC50 was 0.0984 µM.

Staying with this test, now noted: read-out: IC50.
For the compound `O=C1N/C(=N\CCCN2CCOCC2)C(c2ccnc3ccccc23)N1c1ccc2[nH]cnc2c1` (stereo not shown) [Compound 212, 1-(1H-Benzoimidazol-5-yl)-4-3-morpholin-4-yl-propylimino-5-quinolin-4-yl-imidazolidin-2-one], the IC50 is 4.9 µM.
Same read-out and setting: in the case of `Cc1ccc2occ(C3/C(=N/C4CCc5ccccc54)NC(=O)N3c3ccc4[nH]cnc4c3)c(=O)c2c1` (stereo not shown) [Compound 213, 1-(1H-Benzoimidazol-5-yl)-4-indan-1-ylimino-5-(6-methyl-4-oxo-4H-chromen-3-yl)-imidazolidin-2-one] it was 0.004 µM.
On the same count and under the same terms, next, `Oc1cccc(C2/C(=N/c3cc(Cl)ccc3Cl)NC(=S)N2c2ccc3[nH]cnc3c2)c1` (stereo not shown) [Compound 214, 1-(1H-Benzoimidazol-5-yl)-4-2,5-dichloro-phenylimino-5-(3-hydroxy-phenyl)-imidazolidine-2-thione]: 7.6 µM.
Same read-out and setting: next, `O=C1CCCN1CCCN=C1NC(=O)N(c2ccc3[nH]cnc3c2)C1c1cccc2cccnc12` (stereo not shown) [Compound 215, 1-(1H-Benzoimidazol-5-yl)-4-3-(2-oxo-pyrrolidin-1-yl)-propylimino-5-quinolin-8-yl-imidazolidin-2-one]: 6.7 µM.
As to `S=C1N/C(=N/Cn2nnc3ccccc32)C(c2ccc3c(c2)OCCO3)N1c1ccc2[nH]cnc2c1` (stereo not shown) [Compound 217, 1-(1H-Benzoimidazol-5-yl)-4-benzotriazol-1-ylmethylimino-5-(2,3-dihydro-benzo1,4dioxin-6-yl)-imidazolidine-2-thione], the 50% inhibitory concentration (IC50) turned out to be 0.4 µM.
Still for that read-out and setting: next, `O=C1N/C(=N\C2CCc3ccccc32)C(c2ccc3[nH]ccc3c2)N1c1ccc2[nH]cnc2c1` (stereo not shown) [Compound 218, 1-(1H-Benzoimidazol-5-yl)-4-indan-1-ylimino-5-(1H-indol-5-yl)-imidazolidin-2-one]: 0.004 µM.
On the same count and under the same terms, in the case of `Cc1ccc(C2/C(=N\CCc3c[nH]c4ccccc34)NC(=O)N2c2ccc3[nH]cnc3c2)c(C)c1` (stereo not shown) [Compound 219, 1-(1H-Benzoimidazol-5-yl)-5-(2,4-dimethyl-phenyl)-4-2-(1H-indol-3-yl)-ethylimino-imidazolidin-2-one] it was 0.004 µM; in that of `O=C1N/C(=N\C2CCCCC2)C(c2c(F)ccc(Cl)c2F)N1c1ccc2[nH]cnc2c1` (stereo not shown) [Compound 220, 1-(1H-Benzoimidazol-5-yl)-5-(3-chloro-2,6-difluoro-phenyl)-4-(cyclohexylimino)-imidazolidin-2-one], 0.004 µM; in that of `O=C1N/C(=N/Cc2cccnc2)C(c2ccc3ccccc3c2)N1c1ccc2[nH]cnc2c1` (stereo not shown) [Compound 221, 1-(1H-Benzoimidazol-5-yl)-5-naphthalen-2-yl-4-pyridin-3-ylmethylimino-imidazolidin-2-one], 6.7 µM.
Same read-out and setting: next, `O=C(CN=C1NC(=O)N(c2ccc3[nH]cnc3c2)C1c1ccc2[nH]ccc2c1)N1CCC(O)C1` (stereo not shown) [Compound 222, 1-(1H-Benzoimidazol-5-yl)-4-2-(3-hydroxy-pyrrolidin-1-yl)-2-oxo-ethylimino-5-(1H-indol-5-yl)-imidazolidin-2-one]: 1.3 µM; `C/N=C1/NC(=O)N(c2ccc3[nH]cnc3c2)C1c1c[nH]c2ccc(Cl)cc12` (stereo not shown) [Compound 223, 1-(1H-Benzoimidazol-5-yl)-5-(5-chloro-1H-indol-3-yl)-4-methylimino-imidazolidin-2-one]: 0.4 µM; `O=C1N/C(=N/CCCc2ccccc2)C(c2ccc3[nH]ccc3c2)N1c1ccc2[nH]cnc2c1` (stereo not shown) [Compound 224, 1-(1H-Benzoimidazol-5-yl)-5-(1H-indol-5-yl)-4-3-phenyl-propylimino-imidazolidin-2-one]: 0.004 µM.
With `COc1ccc(C2C(=NCC(=O)N3CCSCC3)NC(=S)N2c2ccc3[nH]cnc3c2)c(F)c1` (stereo not shown) [Compound 225, 2-(1-(1H-Benzo[d]imidazol-5-yl)-5-(2-fluoro-4-methoxyphenyl)-2-thioxoimidazolidin-4-ylideneamino)-1-thiomorpholinoethanone], the half-inhibitory concentration (IC50) turned out to be 6.7 µM.
Same read-out and setting: in the case of `O=C1N/C(=N/Cc2cccnc2)C(c2cc(F)cc(F)c2)N1c1ccc2[nH]cnc2c1` (stereo not shown) [Compound 227, 1-(1H-Benzoimidazol-5-yl)-5-(3,5-difluoro-phenyl)-4-pyridin-3-ylmethylimino-imidazolidin-2-one] it was 1.3 µM; in that of `O=C1N/C(=N\C2CCCc3ccccc32)C(c2c(F)ccc(Cl)c2F)N1c1ccc2nc[nH]c2c1` (stereo not shown) [Compound 228, 1-(3H-Benzoimidazol-5-yl)-5-(3-chloro-2,6-difluoro-phenyl)-4-1,2,3,4-tetrahydro-naphthalen-1-ylimino-imidazolidin-2-one], 0.004 µM.
Still for that read-out and setting: next, `OC(CN=C1NC(=S)N(c2ccc3[nH]cnc3c2)C1c1cc(F)cc(F)c1)c1ccccc1` (stereo not shown) [Compound 229, 1-(1H-Benzoimidazol-5-yl)-5-(3,5-difluoro-phenyl)-4-2-hydroxy-2-phenyl-ethylimino-imidazolidine-2-thione]: 8.5 µM.
As for `Cc1ccc2c(C3/C(=N\Cc4ccccc4)NC(=O)N3c3ccc4[nH]cnc4c3)c[nH]c2c1` (stereo not shown) [Compound 230, 1-(1H-Benzoimidazol-5-yl)-4-benzylimino-5-(6-methyl-1H-indol-3-yl)-imidazolidin-2-one], the half-maximal inhibitory concentration (IC50) worked out at 0.004 µM.
The same measure, in the same setting: next, `O=C1CCCN1CCCN=C1NC(=S)N(c2ccc3[nH]cnc3c2)C1c1ccc2nsnc2c1` (stereo not shown) [Compound 231, 1-{3-1-(1H-Benzoimidazol-5-yl)-5-benzo[c][1,2,5]thiadiazol-5-yl-2-thioxo-imidazolidin-(4Z)-ylideneamino-propyl}-pyrrolidin-2-one]: 4 µM; `O=C1N/C(=N/CCCc2ccccc2)C(c2c[nH]c3cc(F)ccc23)N1c1ccc2[nH]cnc2c1` (stereo not shown) [Compound 232, 1-(1H-Benzoimidazol-5-yl)-5-(6-fluoro-1H-indol-3-yl)-4-3-phenyl-propylimino-imidazolidin-2-one]: 2.2 µM; `O=C1N/C(=N/CCN2CCOCC2)C(c2ccc3ccccc3c2)N1c1ccc2[nH]cnc2c1` (stereo not shown) [Compound 233, 1-(1H-Benzoimidazol-5-yl)-4-2-morpholin-4-yl-ethylimino-5-naphthalen-2-yl-imidazolidin-2-one]: 2.2 µM.
`COC(=O)C(C)/N=C1\NC(=O)N(c2ccc3[nH]cnc3c2)C1c1ccccc1` (stereo not shown) [Compound 234, Methyl 2-(1-(1H-benzo[d]imidazol-5-yl)-2-oxo-5-phenylimidazolidin-4-ylideneamino)propanoate]: the IC50 worked out at 7.6 µM.
Regarding `O=C1N/C(=N\c2ccc3c(c2)OCCO3)C(c2ccc3c(c2)OCCO3)N1c1ccc2[nH]cnc2c1` (stereo not shown) [Compound 235, 1-(1H-Benzoimidazol-5-yl)-5-(2,3-dihydro-benzo1,4dioxin-6-yl)-4-2,3-dihydro-benzo1,4dioxin-6-ylimino-imidazolidin-2-one], the half-maximal inhibitory concentration (IC50) is 0.004 µM.
Turning to `O=C1N/C(=N\C2CCCc3ccccc32)C(c2cc(Br)cs2)N1c1ccc2nc[nH]c2c1` (stereo not shown) [Compound 236, 1-(3H-Benzoimidazol-5-yl)-5-(4-bromo-thiophen-2-yl)-4-1,2,3,4-tetrahydro-naphthalen-1-ylimino-imidazolidin-2-one], the IC50 is 2.2 µM.
The same measure, in the same setting: in the case of `Cc1ccc(C2/C(=N/c3c(Cl)cccc3Cl)NC(=S)N2c2ccc3nc[nH]c3c2)cc1` (stereo not shown) [Compound 237, 1-(3H-Benzoimidazol-5-yl)-4-2,6-dichloro-phenylimino-5-p-tolyl-imidazolidine-2-thione] it was 7.6 µM.
Turning to `O=C1N/C(=N\C2CCCCC2O)C(c2ccc3nsnc3c2)N1c1ccc2[nH]cnc2c1` (stereo not shown) [Compound 238], the half-inhibitory concentration (IC50) is 0.004 µM.
Still for that read-out and setting: in the case of `Cc1ccc2occ(C3/C(=N/CCCc4ccccc4)NC(=O)N3c3ccc4[nH]cnc4c3)c(=O)c2c1` (stereo not shown) [Compound 239, 1-(1H-Benzoimidazol-5-yl)-5-(6-methyl-4-oxo-4H-chromen-3-yl)-4-(3-phenyl-propylimino)-imidazolidin-2-one] it was 0.4 µM.
The same measure, in the same setting: in the case of `S=C1N/C(=N\C(Cc2ccccc2)c2ccccc2)C(C2=CCCCC2)N1c1ccc2[nH]cnc2c1` (stereo not shown) [Compound 240, 1-(1H-Benzoimidazol-5-yl)-5-cyclohex-1-enyl-4-1,2-diphenyl-ethylimino-imidazolidine-2-thione] it was 8.5 µM; in that of `O=C1CCCN1CCC/N=C1/NC(=O)N(c2ccc3[nH]cnc3c2)C1c1cccc(Br)c1` (stereo not shown) [Compound 241, 1-(1H-Benzoimidazol-5-yl)-5-(3-bromo-phenyl)-4-3-(2-oxo-pyrrolidin-1-yl)-propylimino-imidazolidin-2-one], 0.004 µM; in that of `CN(C)c1ccc(C2/C(=N/C3CCc4ccccc43)NC(=O)N2c2ccc3[nH]cnc3c2)cc1` (stereo not shown) [Compound 242, 1-(1H-Benzoimidazol-5-yl)-5-(4-dimethylamino-phenyl)-4-indan-1-ylimino-imidazolidin-2-one], 0.004 µM.
Still for that read-out and setting: in the case of `CC1=CC(C)C(C2/C(=N/CC(=O)N3CCCN(C)CC3)NC(=O)N2c2ccc3[nH]cnc3c2)CC1` (stereo not shown) [Compound 243, 1-(1H-Benzoimidazol-5-yl)-5-(2,4-dimethyl-cyclohex-3-enyl)-4-2-(4-methyl-1,4diazepan-1-yl)-2-oxo-ethylimino-imidazolidin-2-one] it was 5.8 µM; in that of `O=C1N/C(=N\C2CCCC2)C(c2cc(F)cc(F)c2)N1c1ccc2[nH]cnc2c1` (stereo not shown) [Compound 244, 1-(1H-Benzoimidazol-5-yl)-4-cyclopentylimino-5-(3,5-difluoro-phenyl)-imidazolidin-2-one], 0.4 µM; in that of `CCc1ccccc1/N=C1\NC(=O)N(c2ccc3[nH]cnc3c2)C1c1ccccc1` (stereo not shown) [Compound 245, 1-(1H-Benzoimidazol-5-yl)-4-2-ethyl-phenylimino-5-phenyl-imidazolidin-2-one], 7.6 µM.
For `O=C1N/C(=N\C2CCCC2)C(c2coc3ccccc3c2=O)N1c1ccc2[nH]cnc2c1` (stereo not shown) [Compound 246, 1-(1H-Benzoimidazol-5-yl)-4-cyclopentylimino-5-(4-oxo-4H-chromen-3-yl)-imidazolidin-2-one], the concentration for half-maximal inhibition (IC50) is 7.6 µM.
